IC50 data for 44 compounds are collected here from patent publication US10858335B2 (Rigel Pharmaceuticals, Inc., priority 2014, dated 2020).

Read-outs that look alike come from different tables or passages of the source.

The assay relates to GDF8 signaling (p-SMAD-3 (Ser423/425)). In words: AlphaScreen SureFire SMAD3 (p-Ser423/425) assay, GDF8-stimulated cells (GDF pSMAD). The format is cell-based. The following applies: Mus musculus. For orientation: Alpha assays give light when donor and acceptor beads are brought close together.
Setting [1] is: MPC-11, MPC11, GDF8-stimulated, p-SMAD3 AlphaScreen, read-out: GDF pSMAD (MPC11) (inhibition of GDF8 signaling).
[2] abbreviates: MPC-11, GDF8-stimulated pSMAD3, MPC11, tested as the salt form given, read-out: GDF pSMAD (MPC11) (μM), inhibition of GDF8 signaling.

`Nc1ncnc2ccc(-c3cccnc3-c3ccc(F)c(Cl)c3)nc12` [compound 964, 6-(2-(3-Chloro-4-fluorophenyl)pyridin-3-yl)pyrido[3,2-d]pyrimidin-4-amine]: the IC50 under setting [1] was determined as 0.232 µM.

Consider `Fc1ccc(-c2ncccc2-c2ccn3nccc3n2)c(F)c1Cl` [compound 965, 5-(2-(3-Chloro-2,4-difluorophenyl)pyridin-3-yl)pyrazolo[1,5-a]pyrimidine], for which the IC50 under setting [1] stood at 5.19 µM.

Take `Cn1cnc2ccc(-c3cccnc3-c3ccc(F)c(Cl)c3F)cc21` [compound 967, 6-(2-(3-Chloro-2,4-difluorophenyl)pyridin-3-yl)-1-methyl-1H-benzo[d]imidazole]: the IC50 under setting [1] came to 1.44 µM.

As for `Nc1ncnc2ccc(-c3cccnc3-c3cccc(O)c3)cc12` [compound 977, 3-(3-(4-aminoquinazolin-6-yl)pyridin-2-yl)phenol], under setting [2], the IC50 was 1 µM.

As for `Nc1ncnc2ccc(-c3cccnc3-c3ccc(F)c(Cl)c3F)cc12` [compound 978, 6-(2-(3-chloro-2,4-difluorophenyl)pyridin-3-yl)quinazolin-4-amine], the IC50 under setting [2] was 1.87 µM.

Take `CN(C)C(=O)Oc1cccc(-c2ncccc2-c2ccc3ncnc(N)c3c2)c1` [compound 979, 3-(3-(4-aminoquinazolin-6-yl)pyridin-2-yl)phenyl dimethylcarbamate]: the IC50 under setting [2] stood at 14 µM.

Take `Cc1cc2ncnc(N)c2cc1-c1cccnc1-c1ccc(F)c(Cl)c1` [compound 980, 6-(2-(3-chloro-4-fluorophenyl)pyridin-3-yl)-7-methylquinazolin-4-amine]: the IC50 under setting [2] was found to be 3.73 µM.

For the compound `Cc1cc2ncnc(N)c2cc1-c1cccnc1-c1cc(Cl)ccc1F` [compound 981, 6-(2-(5-chloro-2-fluorophenyl)pyridin-3-yl)-7-methylquinazolin-4-amine], under setting [2], the IC50 is 9.34 µM.

Take `Nc1ncnc2ccc(-c3cccnc3-c3cccc(OC(F)F)c3)cc12` [compound 982, 6-(2-(3-(difluoromethoxy)phenyl)pyridin-3-yl)quinazolin-4-amine]: under setting [2], the IC50 was 0.0411 µM.

On to `Cc1ccc(C)c(-c2ncccc2-c2ccc3ncnc(N)c3c2)c1` [compound 983, 6-(2-(2,5-dimethylphenyl)pyridin-3-yl)quinazolin-4-amine], for which the IC50 under setting [2] came to 1.46 µM.

In the case of `Cc1ccc(Cl)c(-c2ncccc2-c2ccc3ncnc(N)c3c2)c1` [compound 984, 6-(2-(2-chloro-5-methylphenyl)pyridin-3-yl)quinazolin-4-amine], the IC50 under setting [2] came to 0.45 µM.

Regarding `Cc1cc(-c2cccnc2-c2ccc(F)c(Cl)c2)cc2c(N)ncnc12` [compound 985, 6-(2-(3-chloro-4-fluorophenyl)pyridin-3-yl)-8-methylquinazolin-4-amine], the IC50 under setting [2] came out at 2.18 µM.

Consider `Cc1cc(-c2ncccc2-c2cc(C)c3ncnc(N)c3c2)ccc1F` [compound 986, 6-(2-(4-fluoro-3-methylphenyl)pyridin-3-yl)-8-methylquinazolin-4-amine], for which the IC50 under setting [2] was found to be 0.956 µM.

For the compound `Cc1cc(F)c(F)cc1-c1ncccc1-c1ccc2ncnc(N)c2c1` [compound 987, 6-(2-(4,5-difluoro-2-methylphenyl)pyridin-3-yl)quinazolin-4-amine], the IC50 under setting [2] was 8 µM.

As to `Cc1cc(C)c(-c2ncccc2-c2ccc3ncnc(N)c3c2)cc1F` [compound 988, 6-(2-(5-fluoro-2,4-dimethylphenyl)pyridin-3-yl)quinazolin-4-amine], the IC50 under setting [2] was found to be 1.06 µM.

With `Cc1cc(F)c(Cl)cc1-c1ncccc1-c1ccc2ncnc(N)c2c1` [compound 989, 6-(2-(5-chloro-4-fluoro-2-methylphenyl)pyridin-3-yl)quinazolin-4-amine], the IC50 under setting [2] came out at 0.692 µM.

With `Cc1cnc(-c2ccc(F)c(Cl)c2)c(-c2ccc3ncnc(N)c3c2)c1` [compound 990, 6-(2-(3-chloro-4-fluorophenyl)-5-methylpyridin-3-yl)quinazolin-4-amine], the IC50 under setting [2] was found to be 0.285 µM.

On to `Cc1cnc(-c2cccc(O)c2)c(-c2ccc3ncnc(N)c3c2)c1` [compound 991, 3-(3-(4-aminoquinazolin-6-yl)-5-methylpyridin-2-yl)phenol], for which the IC50 under setting [2] was 20.2 µM.

For the compound `COc1cnc(-c2ccc(F)c(Cl)c2)c(-c2ccc3ncnc(N)c3c2)c1` [compound 992, 6-(2-(3-chloro-4-fluorophenyl)-5-methoxypyridin-3-yl)quinazolin-4-amine], under setting [2], the IC50 was found to be 1.86 µM.

In the case of `COc1cnc(-c2cc(Cl)ccc2F)c(-c2ccc3ncnc(N)c3c2)c1` [compound 993, 6-(2-(5-chloro-2-fluorophenyl)-5-methoxypyridin-3-yl)quinazolin-4-amine], the IC50 under setting [2] came out at 0.486 µM.

Regarding `COc1cnc(-c2cccc(O)c2)c(-c2ccc3ncnc(N)c3c2)c1` [compound 994, 3-(3-(4-aminoquinazolin-6-yl)-5-methoxypyridin-2-yl)phenol], under setting [2], the IC50 came to 3.21 µM.

Regarding `Nc1ncnc2ccc(-c3cc(F)cnc3-c3ccc(F)c(Cl)c3)cc12` [compound 998, 6-(2-(3-chloro-4-fluorophenyl)-5-fluoropyridin-3-yl)quinazolin-4-amine], the IC50 under setting [2] is 2.44 µM.

Consider `Nc1ncnc2ccc(-c3cc(F)cnc3-c3cc(Cl)ccc3F)cc12` [compound 999, 6-(2-(5-chloro-2-fluorophenyl)-5-fluoropyridin-3-yl)quinazolin-4-amine], for which, under setting [2], the IC50 came out at 1.2 µM.

With `Nc1ncnc2ccc(-c3cc(F)cnc3-c3cccc(O)c3)cc12` [compound 1000, 3-(3-(4-aminoquinazolin-6-yl)-5-fluoropyridin-2-yl)phenol], the IC50 under setting [2] turned out to be 6.5 µM.

For the compound `Cc1cc(-c2ncccc2-c2ccc3ncnc(N)c3c2)c(C)cc1F` [compound 1002, 6-(2-(4-fluoro-2,5-dimethylphenyl)pyridin-3-yl)quinazolin-4-amine], the IC50 under setting [2] was determined as 1.42 µM.

In the case of `Nc1ncnc2ccc(-c3cccnc3-c3ccccc3F)cc12` [compound 1003, 6-(2-(2-fluorophenyl)pyridin-3-yl)quinazolin-4-amine], under setting [2], the IC50 worked out at 7.27 µM.

With `Cc1ccc(F)c(-c2ncccc2-c2ccc3ncnc(N)c3c2)c1` [compound 1004, 6-(2-(2-fluoro-5-methylphenyl)pyridin-3-yl)quinazolin-4-amine], the IC50 under setting [2] was 0.203 µM.

With `Cc1ccc(O)cc1-c1ncccc1-c1ccc2ncnc(N)c2c1` [compound 1005, 3-(3-(4-aminoquinazolin-6-yl)pyridin-2-yl)-4-methylphenol], the IC50 under setting [2] came out at 5.45 µM.

Turning to `Nc1ncnc2ccc(-c3cccnc3-c3cc(O)ccc3F)cc12` [compound 1006, 3-(3-(4-aminoquinazolin-6-yl)pyridin-2-yl)-4-fluorophenol], the IC50 under setting [2] amounted to 0.735 µM.

With `CCc1cccc(-c2ncccc2-c2ccc3ncnc(N)c3c2)c1` [compound 1007, 6-(2-(3-ethylphenyl)pyridin-3-yl)quinazolin-4-amine], under setting [2], the IC50 was determined as 0.223 µM.

On to `COc1cc(-c2ncccc2-c2ccc3ncnc(N)c3c2)c(Cl)cc1F` [compound 1008, 6-(2-(2-chloro-4-fluoro-5-methoxyphenyl)pyridin-3-yl)quinazolin-4-amine], for which the IC50 under setting [2] came out at 5.81 µM.

Turning to `Nc1ncnc2ccc(-c3cccnc3-c3cc(OC(F)(F)F)ccc3Cl)cc12` [compound 1009, 6-(2-(2-chloro-5-(trifluoromethoxy)phenyl)pyridin-3-yl)quinazolin-4-amine], the IC50 under setting [2] worked out at 3.29 µM.

On to `Nc1ncnc2ccc(-c3cccnc3-c3ccc(F)c(OC(F)F)c3)cc12` [compound 1010, 6-(2-(3-(difluoromethoxy)-4-fluorophenyl)pyridin-3-yl)quinazolin-4-amine], for which the IC50 under setting [2] amounted to 0.562 µM.

Regarding `COc1ccc(Cl)c(-c2ncccc2-c2ccc3ncnc(N)c3c2)c1` [compound 1011, 6-(2-(2-chloro-5-methoxyphenyl)pyridin-3-yl)quinazolin-4-amine], the IC50 under setting [2] worked out at 3.33 µM.

Regarding `Cc1cc(-c2ncccc2-c2ccc3ncnc(N)c3c2)c(Cl)cc1F` [compound 1012, 6-(2-(2-chloro-4-fluoro-5-methylphenyl)pyridin-3-yl)quinazolin-4-amine], the IC50 under setting [2] was found to be 0.728 µM.

Consider `Nc1ncnc2ccc(-c3cccnc3-c3cc(O)c(F)cc3F)cc12` [compound 1013, 5-(3-(4-aminoquinazolin-6-yl)pyridin-2-yl)-2,4-difluorophenol], for which the IC50 under setting [2] turned out to be 1.05 µM.

On to `Nc1ncnc2ccc(-c3cccnc3-c3cc(OC(F)(F)F)ccc3F)cc12` [compound 1014, 6-(2-(2-fluoro-5-(trifluoromethoxy)phenyl)pyridin-3-yl)quinazolin-4-amine], for which the IC50 under setting [2] came out at 0.416 µM.

In the case of `COc1ccc(C)c(-c2ncccc2-c2ccc3ncnc(N)c3c2)c1` [compound 1015, 6-(2-(5-methoxy-2-methylphenyl)pyridin-3-yl)quinazolin-4-amine], the IC50 under setting [2] came out at 6.95 µM.

As for `Nc1ncnc2ccc(-c3cccnc3-c3cc(O)ccc3Cl)cc12` [compound 1016, 3-(3-(4-aminoquinazolin-6-yl)pyridin-2-yl)-4-chlorophenol], under setting [2], the IC50 amounted to 2.77 µM.

With `Nc1ncnc2ccc(-c3cccnc3-c3cc(OC(F)F)ccc3Cl)cc12` [compound 1017, 6-(2-(2-chloro-5-(difluoromethoxy)phenyl)pyridin-3-yl)quinazolin-4-amine], under setting [2], the IC50 amounted to 2.08 µM.

As to `Nc1ncnc2ccc(-c3cccnc3-c3cc(C(F)F)ccc3Cl)cc12` [compound 1018, 6-(2-(2-chloro-5-(difluoromethyl)phenyl)pyridin-3-yl)quinazolin-4-amine], the IC50 under setting [2] is 0.735 µM.

As for `Cc1cc(F)c(O)cc1-c1ncccc1-c1ccc2ncnc(N)c2c1` [compound 1019], the IC50 under setting [2] came to 7.43 µM.

On to `Nc1ncnc2ccc(-c3cccnc3-c3cc(O)c(F)cc3Cl)cc12` [compound 1020, 5-(3-(4-aminoquinazolin-6-yl)pyridin-2-yl)-4-chloro-2-fluorophenol], for which the IC50 under setting [2] came out at 4.77 µM.

`Cc1cc(-c2ncccc2-c2ccc3ncnc(N)c3c2)ccc1F` [compound 1021, 6-(2-(4-fluoro-3-methylphenyl)pyridin-3-yl)quinazolin-4-amine]: the IC50 under setting [2] came out at 0.175 µM.
